{"source": "patent US20250268859A1", "about": "“OXAFURAMINE, (1R)-N-ETHYL-1-[(2R)-OXOLAN-2-YL]-2-[…], HYDROCHLORIDE AND DERIVATIVES THEREOF FOR TREATING ALZHEIMER'S DISEASE (AD), […] […], […] WITH LEWY BODIES (DLB), MIXED […], FRON[…] DEGENERATION (FTLD), AND PARKINSON'S DISEASE (PD)” (NLS Pharmaceutics AG, priority 2021, published 2025)", "type_in_all_cases": "in vivo, C57BL/6J, male", "key": {"[1]": {"tested_on": "memory (recognition of the familiar object) in mice", "experiment": "Novel Object Recognition (NOR) test in mice", "conditions": "Donepezil 2 mg/kg i.p., 72 h post treatment, mean, N = 16"}, "[2]": {"tested_on": "memory (recognition of the familiar object) in mice", "experiment": "Novel Object Recognition (NOR) test in mice", "conditions": "mean, N = 16", "protocol": "The test was carried out in circular boxes (30 cm diameter, 40 cm high). The objects to be discriminated (L≈1≈h≈3-4 cm) differed in both color and shape and were referred as yellow duck and blue lego. They were fixed with a magnet to the floor of the boxes at 5 cm of the wall, 20 cm distant. Apparently, they have no natural significance for mice and they have never been associated with a reinforcement. In order to rule out the possibility of scent traces left on the objects and therefore the dependency of the recognition capacity of mice on the olfactory cue, the objects and the ground of the box were washed with an odorless disinfectant (Sanicid® diluted in water) and dried between each trial. A camcorder was fixed to the ceiling above the box to record the animals' activity. The experiment was analyzed blindly at a later time.\nOn the week before the test, animals were handled by the experimenter in charge of the experiment in order to be not stressed at the time of testing. For this purpose, the experimenter placed a small amount of litter, and then the mouse on its hand.\nThe NOR test was completed over five days (see FIG. 1): • Day 1: Habituation trial. Animals were individually placed for a 15-min free exploration session in empty open boxes. • Day 2. Treatment administration and sample trial. […] They were individually placed 30 min after in the apparatus for a 6-min session with two identical objects (Duck, 50% of animals or Lego, 50% of animals). • Day 3. Choice trial. The mice were individually placed for a 6-min session in the apparatus with two objects (Duck and Lego), one of the objects presented in sample trials (termed as familiar objects) and a novel object (Lego, 50% of animals or Duck, 50% of animals).\nThe sample and choice trials were recorded with the camera located above the apparatus. The time spent by mice in exploring the objects was measured during the sample trial and the choice trial. Exploration of an object was defined as follows: directing the nose to the object at a distance≤2 cm and/or touching it with the nose or forelimbs; turning around or biting the object, or sitting on the object were not considered as exploratory behavior.\n• L=exploration time of the left object in the sample trial. • R=exploration time of the right object in the sample trial. • N=exploration time of the new object in the choice trial. • F=exploration time of the familiar object in the choice trial.\n• Exploration indices: • ST=L+R=exploration time (left object+right object) in the sample trial. • CT=N+F=exploration time (new object+familiar object) in the choice trial. • Two memory indices: • N-F=difference of exploration time between the new object and the familiar object in the choice trial.\n(§1) Statistical analyses: • Read-outs: DI, N-F, ST, CT, N, F • Unpaired Student's t test: Donep 2 group vs. Control group. • One-way ANOVA, Dunnett test: • NLS-12 groups vs. Control group. • NLS-12 groups vs. Donep 2 group. • Read-outs: DI and N-F, for all groups, paired Student's t test, difference vs. 0. • Body weight: one-way ANOVA."}, "[3]": {"experiment": "Body weight of the mice in the NOR study", "conditions": "Donepezil 2 mg/kg i.p. group; mean, N = 16", "excerpt": "as §1"}}, "note": "Structures can show the parent of a compound that is named as a salt."}
{"smiles": "COc1cc2c(cc1OC)C(=O)C(CC1CCN(Cc3ccccc3)CC1)C2", "note": "(stereo not shown) [Donepezil, Donepezil hydrochloride, reference compound]", "values": [{"measurement": "CT Exploration time in the choice trial (s) = N + F", "setting": "[1]", "result": 21.7, "unit": "s"}, {"measurement": "CT Exploration time in the choice trial (s) = N + F", "setting": "[1]; hydrochloride", "result": "did not significantly modify the exploration time during the choice trial"}, {"measurement": "N − F Exploration time novel − familiar object", "setting": "[2]; Donepezil 2 mg/kg i.p. 30 min before sample trial, choice trial", "result": 4.3, "unit": "s"}, {"measurement": "ST Exploration time in the sample trial", "setting": "[2]; Donepezil 2 mg/kg i.p., 30 min post treatment", "result": 20.2, "unit": "s"}, {"measurement": "ST Exploration time in the sample trial (s)", "setting": "[2]; Donepezil 2 mg/kg i.p., 30 min post treatment, hydrochloride", "result": "decreased the exploration time during the sample trial"}, {"measurement": "N Exploration time of novel object", "setting": "[2]; Donepezil 2 mg/kg i.p., choice trial", "result": 13.1, "unit": "s"}, {"measurement": "BW Body weight", "setting": "[3]", "result": 23.2, "unit": "g"}]}
